# Values of other authors as cited in patent US20190000853A1, “ANTIVIRAL 4-(2-AMINO-6-HETEROCYLYL-9H-PURIN-9-YL)-2-CYCLOPENTENE-1 -METHANOL COMPOUNDS” (THE UNIVERSITY OF LIVERPOOL, priority 2015, published 2019).
# Tested on: HIV-1
# Details: literature comparison with Abacavir
structure (smiles),measurement,value
Nc1nc(N2CCC2)c2ncn([C@H]3C=C[C@@H](CO)C3)c2n1 [ABC1-4],Antiviral potency relative to Abacavir,equipotent to Abacavir
